# Measurements: US8785430B2, “Compound that can inhibit UBC13-UEV interactions, pharmaceutical compositions and therapeutic uses” (Consejo Superior de Investigaciones Cientificas, priority 2006, dated 2014)
# What was measured:
# [1] = system: S. cerevisiae Δrev3 mutants; assay: Survival of S. cerevisiae Δrev3 mutants after ultraviolet radiation or MMS; assay type: cell-based, Saccharomyces cerevisiae; details: 100 μM; UV or 0.03% MMS
# Experimental: To determine if compounds Ia and Ib inhibit the function of Ubc13p-Mms2p, their capacity to mimic in S. cerevisiae the DNA repair phenotypes generated by the null mutation of ubc13 was evaluated. Thus, mutant strains in RAD6 or REV3 and the parent strain thereof (control) were used in viability assays after the exposure to ultraviolet radiation or MMS. The genotypes of the strains used are the following:
# 3) Strain Δrev3: MAT at his3Δ1 leu2Δ0 lys2Δ0 ura3Δ0 rev3::kanMX4
# Cells were inoculated in liquid cultures with YPD medium overnight at 30° C., until reaching the log phase of growth. For the treatments with ultraviolet radiation, aliquots of cells, grown in the presence or absence of 100 μM of compounds Ia or Ib were irradiated in a Stratalinker instrument (Stratagene) at the energies indicated in FIGS. 7 and 8. For the treatment with the mutagenic agent MMS, aliquots of cells grown or not in medium with 100 μM of compounds Ia or Ib were incubated, 0.03% MMS being added, with subsequent incubation for the times indicated in FIGS. 7 and 8. After either treatment, 500 cells were seeded in plates with YPD medium, counting the colonies after 2 days.
# PC-3 cells = assay: CyQuant cell count, sensitization to doxorubicin; assay type: cell-based, human; details: 100 μM of compound Ia
# Experimental: The addition of 100 μM of Ia reduced the IC50 of doxorubicin to 0.1 μM for PC-3 cells and the IC50 of etoposide to 0.04 μM for HeLa cells. Therefore, the treatment with 100 μM of compound Ia causes a sensitization to the cytotoxic effects of doxorubicin of 5 times (PC-3 cells) and a sensitization to the cytotoxic effects of etoposide of 30 times (HeLa cells).
# PC-3.Sluc cells tumors = assay: PC-3.Sluc tumor xenografts in Balb/c nu/nu mice, light emission (RLUs); assay type: in vivo
# Experimental: For the purpose of determining if Varubin has an in vivo antitumor activity, its effects in mice having tumors formed from PC-3 cells were analyzed. The experimental tumors were formed by means of the intramuscular inoculation of PC-3.Sluc cells. The latter are PC-3 prostate cells in which they have been integrated by means of transfecting plasmid pRC/CMV-luc, which expresses the firefly (Photinus pyralis) luciferase gene in mammalian cells q. The incubation of the PC-3.luc cells with D-luciferin, a luciferase substrate, produces light, which can be quantified in an absolute manner (number of photons) either by means of a luminometer or by means of detection with a CCD (charge-coupled device) camera. The latter process further allows representing in real time images of the location of the tumor cells in the inoculated animals, as well as the tumor size, since the intensity of the light (number of photons) emitted in the presence of luciferin is directly proportional to the number of PC-3.luc cells.
# For these studies, 24 male Balb/c nu/nu mice (Charles River Laboratories) of an age of 6 weeks were used. These animals were kept in a pathogen-free environment at all times, having been kept in the animal housing facility for 1 week after they were received, before the experimental handling. After being anesthetized by means of an intraperitoneal (i.p.) injection of a mixture at equal parts of 6 mg/Kg of droperidol (Roche, Basel, Switzerland) and 12 mg/Kg of midazolam (Rovi S.A, Madrid, Spain), intramuscular (i.m.) injections were performed both in the right leg and in the left leg of each animal of 1×10^6 PC-3.Sluc cells, suspended in 100 μL of fetal bovine serum-free culture medium. The development of tumors in the inoculation sites was allowed for 2 weeks, after which a first measurement of photons emitted was made and a first capture of images with an ORCA-2BT Imaging System instrument (Hammamatsu Photonics) provided with a C4742-98-LWG-MOD model CCD camera (cooled at −80° C.) was done at a resolution of 512×512 pixels. […] Four minutes later, photons were detected and quantified for 5 minutes in the instrument described above. […] The quantification and the analysis of photons were performed with the aid of the image analysis program WASABI (Hamamatsu Photonics). […] For the graphic representations, the quantitative data (RLUs) were standardized, for each tumor, in relation to the RLUs of day 0 of treatment.
# The 24 mice, having luminescent tumors in both legs, were included in 4 experimental groups: (1) Control group, in which an intravenous (i.v.) injection of 100 μL of phosphate buffered saline pH 7.4 (PBS) and 50 μL of intratumoral (i.t.) PBS was performed. […] The light emission of the tumors was analyzed throughout 56 days from the start of the treatment.
# HeLa cells = assay: CyQuant cell count, sensitization to etoposide; details: HeLa cells, 100 μM of compound Ia
smiles,measurement,setting,value
"NC(=O)CN(CCc1ccccn1)C(=O)C1CC(=O)N(CCc2ccc(F)cc2)CC(=O)N1CCc1ccc(F)cc1 (stereo not drawn) [Ia, N-aminocarbamoylmethyl-N-(2′-(2″pyridyl)ethyl)-1,4-bis[2′-(4″-fluorophenyl)ethyl]-3,7-dioxo-[1,4]diazepane-5-carboxamide]",sensitization of Δrev3 cells to UV radiation or exposure to MMS,[1],caused a higher sensitization of the cells
same,sensitization to the cytotoxic effects of doxorubicin,PC-3 cells,5 times
same,antitumor activity in tumors transplanted in nu/nu mice,"PC-3.Sluc cells tumors; 100 μM, intramuscular injection",shows antitumor activity
same,tumor growth (RLUs),"PC-3.Sluc cells tumors; Varubin alone, 100 μM in 50 μL of PBS, i.t./i.m., twice a week, 56 days",very limited growth
same,"tumor growth (RLUs), combined treatment","PC-3.Sluc cells tumors; doxorubicin i.v. 5 mg/Kg once a week plus Varubin 100 μM twice a week, 56 days",did not grow significantly
same,sensitization to the cytotoxic effects of etoposide,HeLa cells,30 times
